Test results: US5494907A, “11-β substituted-19-nor steroids” (Roussel UCLAF, priority 1993, dated 1996)

Target: T1, hPR (recombinant human progesterone receptor) (Homo sapiens, UniProt P06401)
T1 construct: made in house; host or cells: SF9 insect cells (ATCC CRL1711), recombinant baculovirus (BaculoGold Transfection Kit, PharMingen 21000K)
T1 sequence (P06401 1-933): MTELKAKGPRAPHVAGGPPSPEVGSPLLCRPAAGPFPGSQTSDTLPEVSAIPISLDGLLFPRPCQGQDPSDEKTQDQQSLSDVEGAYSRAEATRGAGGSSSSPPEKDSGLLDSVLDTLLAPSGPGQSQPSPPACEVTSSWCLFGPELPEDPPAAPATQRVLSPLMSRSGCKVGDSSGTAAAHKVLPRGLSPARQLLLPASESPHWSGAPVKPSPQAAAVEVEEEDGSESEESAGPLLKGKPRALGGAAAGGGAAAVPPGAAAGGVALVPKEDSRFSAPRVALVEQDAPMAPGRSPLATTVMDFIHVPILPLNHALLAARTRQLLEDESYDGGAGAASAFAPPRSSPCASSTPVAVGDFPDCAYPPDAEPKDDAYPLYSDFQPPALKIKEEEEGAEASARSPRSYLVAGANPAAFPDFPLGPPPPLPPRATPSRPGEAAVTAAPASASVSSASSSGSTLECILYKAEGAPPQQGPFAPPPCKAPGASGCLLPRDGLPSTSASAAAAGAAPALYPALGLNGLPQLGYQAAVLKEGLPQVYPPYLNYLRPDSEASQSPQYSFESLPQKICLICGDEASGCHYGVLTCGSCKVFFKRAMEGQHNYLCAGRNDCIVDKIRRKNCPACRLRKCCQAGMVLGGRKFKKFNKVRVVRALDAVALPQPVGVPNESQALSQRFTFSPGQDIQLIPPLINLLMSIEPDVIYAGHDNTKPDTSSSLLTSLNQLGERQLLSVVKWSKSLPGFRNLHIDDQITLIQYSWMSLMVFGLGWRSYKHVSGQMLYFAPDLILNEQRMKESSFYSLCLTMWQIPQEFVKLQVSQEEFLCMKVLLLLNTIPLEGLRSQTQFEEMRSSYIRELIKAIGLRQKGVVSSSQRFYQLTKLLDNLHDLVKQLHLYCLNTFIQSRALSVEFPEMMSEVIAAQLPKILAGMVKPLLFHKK
Experiment: Relative bond affinity (RBA) on recombinant human progesterone receptor, displacement of tritiated 17α,21-dimethyl-19-nor-Δ4,9-pregnadien-3,20-dione
Assay type: binding
Settings: for RBA hPR: Progesterone = 100, 0° C., 24 hours; for affinity for the progesterone receptor (in words): conclusion in words
Source text: 1--Activity on the hormonal receptors using either the natural hormonal receptor of a rat (AR), or the recombinant human receptor (PR, GR and ER).
Human progesterone receptor
The recombinant human progesterone receptor was obtained by superexpression in an insect-Baculovirus cell system by methodology described by WEBB et al. in Journal of Methods in Cell and Molecular Biology, (1990), Vol. 2 N° 4, pp. 173-188 and whose use is described for the expression of human hormonal receptors, for example the human glucocorticoid receptor (SRINIVASAN et al. Molecular Endocrinology, (1990), Vol. 4 N° 2, pp. 209-216).
The BaculoGold Transfection Kit was used (PharMingen, reference 21000K) to insert the cDNA fragment described by KASTNER et al. (The EMBO Journal, (1990), Vol. 9 N° 5, pp. 1603-1614), containing the region coding for the human progesterone receptor and to prepare the corresponding recombinant virus. The recombinant virus was used to express the progesterone receptor in SF9 insect cells (ATCC CRL1711), by the known methodology mentioned previously.
2×10^7 to 2.5×10^7 SF9 cells were cultivated in a […] "Falcon" flask in a TNM-FH "SIGMA" medium supplemented with 10% of foetal calf serum (FCS) and with 50 micrograms/ml of gentamycin. After infection, then incubation at 27° C. for 40 to 42 hours, the cells were lysed in 1 ml of lysis buffer (1) by a freezing-defrosting cycle which was repeated twice more. The supernatant containing the recombinant human progesterone receptor was kept in liquid nitrogen in doses of 1 ml. The supernatant was diluted at the time of use according to a dilution range varying from 1/10th to 1/100th with 10 mM Tris, 0.25 M saccharose, HCl buffer at pH 7.4 containing 0.1% gelatin and then was incubated at 0° C. for 24 hours with a constant concentration (T) of tritiated 17α,21-dimethyl-19-nor-Δ4,9-pregnadien-3,20-dione in the presence of increasing concentrations either of unlabelled progesterone (0-2500×10^-9 M), or of unlabelled product under test (1 to 25000×10^-9 M). The concentration of bound tritiated 17,21-dimethyl 19-nor-Δ4,9-[…] (B) was then measured in each incubate by the technique of adsorption with carbon dextran.
Calculation of the relative bond affinity (RBA).
The following 2 curves were traced: percentage of bound tritiated hormone B/BO as a function of the logarithm of the concentration of unlabelled reference hormone or as a function of the logarithm of the concentration of the unlabelled product under test.
The straight line of the following equation was determined:
BO=Concentration of bound tritiated hormone in the absence of any unlabelled product,
B=Concentration of bound tritiated hormone in the presence of a concentration X of unlabelled product,
B min=Concentration of bound tritiated hormone in the presence of a large excess of cold reference hormone (500 nM). The intersections of the straight line I50 and the curves allowed the evaluation of the concentrations of unlabelled reference hormone (CH) and of the unlabelled product under test (CX) which inhibited by 50% the specific binding of the tritiated hormone on the receptor.
The relative bond affinity (RBA) of the product under test was determined by the equation:
The RBA's of the reference products estradiol, progesterone, dexamethasone and testosterone were arbitrarily taken to be equal to 100.

| Compound | RBA hPR | affinity for the progesterone receptor (in words) |
| --- | --- | --- |
| CN(CC(F)(F)C(F)(F)C(F)(F)F)S(=O)(=O)CCCCCOc1ccc([C@H]2C[C@]3(C)[C@@H](O)CC[C@H]3[C@@H]3CCc4cc(O)ccc4[C@H]32)cc1 [Example 8, 5-[4-(Δ1,3,5(10)-estratrien-3,17β-diol-11βyl)-Phenoxy]-N-(2,2,3,3,4,4,4-heptafluorobutyl)-N-methyl-pentanesulfonamide] | 55 | marked affinity |
| CCCCNS(=O)(=O)CCCCCOc1ccc([C@H]2C[C@]3(C)[C@@H](O)CC[C@H]3[C@@H]3CCc4cc(O)ccc4[C@H]32)cc1 [Example 2, N-butyl-5-[4-(Δ1,3,5(10)-estratrien-3,17β-diol-11β-yl)phenoxy]-pentanesulfonamide] | 37 | marked affinity |
| CCCCN(C)S(=O)(=O)CCCCCOc1ccc([C@H]2C[C@]3(C)[C@@H](O)CC[C@H]3[C@@H]3CCc4cc(O)ccc4[C@H]32)cc1 [Example 7, N-butyl-5-[4-(Δ1,3,5(10)-estratrien-3,17β-diol-11β-yl)phenoxy]-N-methyl-pentanesulfonamide] | 111 | marked affinity |
